≈ marks a conversion by molar mass, not a printed value. Where “and” joins values, the source holds several entries; their conditions need not be identical. Equal entries are not always repeated. Where two headings read alike, the source gives them in different places.
Legend:
[1] = test system: non-growing UPEC CFT073; experiment: Dilution-regrowth assay (screen, hit validation, dose-response) on stationary-phase UPEC; format: cell-based, Escherichia coli; conditions: for Regrowth, OD600 at 6h or 8h after dilution into drug-free medium: average; for EC50: Escherichia coli
Method in brief: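 Regrowth (OD600 after 6 h, 37 °C) of diluted non-growing CFT073, following 24 h compound treatment of 24 h stationary cultures, defines activity relative to untreated control. Screen at 20 µM, validation at 20, 10, 5 µM (duplicates), dose–response in three biological replicates fitted by five-parameter logistic.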

[2] = test system: non-growing UPEC CFT073; experiment: Dose-dependent killing analysis (CFU spot-plating) of stationary-phase UPEC; format: cell-based, Escherichia coli; conditions: individual replicates
Method in brief: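 Non-growing (stationary-phase) UPEC CFT073 treated with compounds in 96-well format at 200 μl, then 10-fold serially diluted in PBS and 10 μl spots plated on LB agar. Plates incubated overnight at 37 °C; colonies counted at lowest resolvable dilution to give CFU. Three biological replicates.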

[3] = test system: non-growing P. aeruginosa DSM1117; experiment: Dose-dependent killing analysis (CFU spot-plating) of stationary-phase P. aeruginosa; format: cell-based, Pseudomonas aeruginosa; conditions: for log10(CFU/ml) after treatment / killing, average Δlog10(CFU/ml): P. aeruginosa; for log10(CFU/ml) after treatment: individual replicates
Method in brief: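 Stationary-phase P. aeruginosa DSM1117 treated for 24 h in 1:4 CA-MHB, pH 7.4, across compound doses. Survivors counted after 10-fold PBS dilution, spot-plating on LB agar and overnight growth at 37 °C; three biological replicates.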

[4] = test system: S. aureus DSM2569; experiment: MIC, standard microdilution assay, growing S. aureus; format: cell-based, Staphylococcus aureus; conditions: Staphylococcus aureus, DSM2569; S. aureus; CA-MHB pH 7.4; read-out: MIC (μM) CA-MHB
Method in brief: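 Standard microdilution protocol, triplicate wells. For S. flexneri the growth medium is TSB. The other three strains are grown in HEPES-buffered (40 mM, pH 7.4) CA-MHB, and UPEC is also run at pH 5.5 in LPM containing 30 mM MES.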

[5] = test system: non-growing S. aureus DSM2569; experiment: Dose-dependent killing analysis (CFU spot-plating) of stationary-phase S. aureus; format: cell-based, Staphylococcus aureus; conditions: for log10(CFU/ml) after treatment: S. aureus, individual replicates
Method in brief: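 Stationary-phase S. aureus DSM2569 was grown and treated for 24 h in 1:4 CA-MHB at pH 7.4. Treated samples were serially diluted 10-fold in PBS and spot-plated on LB agar, which was incubated overnight at 37 °C. Survivors were counted as CFU over three biological replicates.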

[6] = E. coli in 1:4 CA-MHB (pH 7.4), concentration 0.25
[7] = E. coli in 1:4 CA-MHB (pH 7.4), concentration 0.5
[8] = E. coli in 1:4 CA-MHB (pH 7.4), concentration 1
[9] = E. coli in 1:4 CA-MHB (pH 7.4), concentration 2.5
[10] = E. coli in 1:4 CA-MHB (pH 7.4), concentration 5
[11] = E. coli in LPM (pH 5.5), concentration 0.25
[12] = E. coli in LPM (pH 5.5), concentration 0.5
[13] = E. coli in LPM (pH 5.5), concentration 1
[14] = E. coli in LPM (pH 5.5), concentration 2.5
[15] = E. coli in LPM (pH 5.5), concentration 5
[16] = concentration 0.1, vs CFU before treatment
[17] = concentration 0.5, vs CFU before treatment
[18] = concentration 2.5, vs CFU before treatment
[19] = E. coli in 1:4 CA-MHB (pH 7.4), concentration 10

| Compound | Regrowth, OD600 at 6h or 8h after dilution into drug-free medium [1, 6] | Regrowth, OD600 at 6h or 8h after dilution into drug-free medium [1, 7] | Regrowth, OD600 at 6h or 8h after dilution into drug-free medium [1, 8] | Regrowth, OD600 at 6h or 8h after dilution into drug-free medium [1, 9] | Regrowth, OD600 at 6h or 8h after dilution into drug-free medium [1, 10] | Regrowth, OD600 at 6h or 8h after dilution into drug-free medium [1, 11] | Regrowth, OD600 at 6h or 8h after dilution into drug-free medium [1, 12] | Regrowth, OD600 at 6h or 8h after dilution into drug-free medium [1, 13] | Regrowth, OD600 at 6h or 8h after dilution into drug-free medium [1, 14] | Regrowth, OD600 at 6h or 8h after dilution into drug-free medium [1, 15] | log10(CFU/ml) after treatment [2, 6] | log10(CFU/ml) after treatment [2, 7] | log10(CFU/ml) after treatment [2, 8] | log10(CFU/ml) after treatment [2, 9] | log10(CFU/ml) after treatment [2, 10] | log10(CFU/ml) after treatment ([3]; concentration 0.1) | killing, average Δlog10(CFU/ml) [3, 16] | log10(CFU/ml) after treatment ([3]; concentration 0.5) | killing, average Δlog10(CFU/ml) [3, 17] | log10(CFU/ml) after treatment ([3]; concentration 2.5) | further results |
| --- | --- | --- | --- | --- | --- | --- | --- | --- | --- | --- | --- | --- | --- | --- | --- | --- | --- | --- | --- | --- | --- |
| CCCCCCCCN=c1ccn(CCCCCCCCCCn2ccc(=NCCCCCCCC)cc2)cc1 [Octenidine] | 0.612 | 0.602 | 0.603 | 0.605 | 0.549 | 0.551 | 0.543 | 0.551 | 0.544 | 0.198 | 9.255 log10(CFU/ml) and 9.041 log10(CFU/ml) and 8.954 log10(CFU/ml) | 9.041 log10(CFU/ml) and 9.176 log10(CFU/ml) and 9.301 log10(CFU/ml) | 9.146 log10(CFU/ml) and 9.204 log10(CFU/ml) and 9.041 log10(CFU/ml) | 9.000 log10(CFU/ml) and 8.903 log10(CFU/ml) and 8.778 log10(CFU/ml) | 8.000 log10(CFU/ml) (2×) and 8.146 log10(CFU/ml) | 10.204 log10(CFU/ml) and 9.447 log10(CFU/ml) and 9.415 log10(CFU/ml) | -0.305 log10(CFU/ml) | 9.146 log10(CFU/ml) and 9.322 log10(CFU/ml) and 9.255 log10(CFU/ml) | 0.143 log10(CFU/ml) | 9.230 log10(CFU/ml) (2×) and 9.322 log10(CFU/ml) | Regrowth, OD600 at 6h or 8h after dilution into drug-free medium (average) ([1]; E. coli in 1:4 CA-MHB (pH 7.4), drug concentration 10): 0.188; Regrowth, OD600 at 6h or 8h after dilution into drug-free medium (average) ([1]; E. coli in 1:4 CA-MHB (pH 7.4), drug concentration 30): 0.074; Regrowth, OD600 at 6h or 8h after dilution into drug-free medium (average) ([1]; E. coli in LPM (pH 5.5), drug concentration 10): 0.071; Regrowth, OD600 at 6h or 8h after dilution into drug-free medium (average) ([1]; E. coli in LPM (pH 5.5), drug concentration 30): 0.077; EC50 ([1]; 1:4 CA-MHB pH 7.4 (black curve), medium assigned by comparison with Dataset 1, read-out: EC50 (regrowth inhibition curve, Fig. S4)): 7.95 µM; EC50 ([1]; E. coli, pH 7.4, regrowth delay of non-growing bacteria, 1:4 CA-MHB, 24 h treatment, OD600 6 h after 2500-fold dilution, read-out: EC50): 7.67 µM; EC50 ([1]; LPM pH 5.5 (red curve), medium assigned by comparison with Dataset 1, read-out: EC50 (regrowth inhibition curve, Fig. S4)): 4.41 µM; activity against non-growing UPEC in LPM (pH 5.5) compared to 1:4 CA-MHB (pH 7.4) ([1]; regrowth delay and killing, Figs. 2 and 3): potentiated by the low pH; log10(CFU/ml) after treatment [2, 11]: 7.301 log10(CFU/ml) and 7.568 log10(CFU/ml) and 7.886 log10(CFU/ml); log10(CFU/ml) after treatment [2, 12]: 7.580 log10(CFU/ml) and 7.447 log10(CFU/ml) and 7.881 log10(CFU/ml); log10(CFU/ml) after treatment [2, 13]: 7.447 log10(CFU/ml) and 7.663 log10(CFU/ml) and 7.778 log10(CFU/ml); log10(CFU/ml) after treatment [2, 14]: 7.491 log10(CFU/ml) and 7.633 log10(CFU/ml) and 7.875 log10(CFU/ml); log10(CFU/ml) after treatment [2, 15]: 7.380 log10(CFU/ml) and 7.663 log10(CFU/ml) and 7.863 log10(CFU/ml); killing, average Δlog10(CFU/ml) [3, 18]: 0.123 log10(CFU/ml); killing, average Δlog10(CFU/ml) ([3]; drug concentration 10): 0.517 log10(CFU/ml); MIC [4]: 1 µM (≈ 0.551 µg/mL); log10(CFU/ml) after treatment ([5]; concentration 0.1): 8.505 log10(CFU/ml) and 8.653 log10(CFU/ml) and 8.820 log10(CFU/ml); log10(CFU/ml) after treatment ([5]; concentration 0.5): 8.114 log10(CFU/ml) and 8.380 log10(CFU/ml) and 8.643 log10(CFU/ml); log10(CFU/ml) after treatment ([5]; concentration 2.5): 6.322 log10(CFU/ml) and 7.690 log10(CFU/ml) and 8.255 log10(CFU/ml); reduction of non-growing S. aureus ([5]; at 10 µM, 24 h treatment): below the limit of detection |
| N[C@@H]1CCCCN(c2c(F)cc3c(=O)c(C(=O)O)cn(C4CC4)c3c2Cl)C1 [Besifloxacin] | 0.548 | 0.480 | 0.155 | 0.075 | 0.073 | 0.547 | 0.532 | 0.550 | 0.548 | 0.531 | 8.778 log10(CFU/ml) and 8.699 log10(CFU/ml) and 8.477 log10(CFU/ml) | 8.491 log10(CFU/ml) and 8.204 log10(CFU/ml) (2×) | 7.568 log10(CFU/ml) and 7.322 log10(CFU/ml) and 7.301 log10(CFU/ml) | 6.462 log10(CFU/ml) and 6.204 log10(CFU/ml) and 6.342 log10(CFU/ml) | 6.398 log10(CFU/ml) and 5.342 log10(CFU/ml) and 5.362 log10(CFU/ml) | 8.000 log10(CFU/ml) and 8.602 log10(CFU/ml) and 8.204 log10(CFU/ml) | 0.619 log10(CFU/ml) | 7.845 log10(CFU/ml) and 7.699 log10(CFU/ml) (2×) | 1.140 log10(CFU/ml) | 5.000 log10(CFU/ml) (2×) and 4.699 log10(CFU/ml) | Regrowth, OD600 at 6h or 8h after dilution into drug-free medium [1, 19]: 0.071; Regrowth, OD600 at 6h or 8h after dilution into drug-free medium ([1]; E. coli in 1:4 CA-MHB (pH 7.4), concentration 30): 0.073; Regrowth, OD600 at 6h or 8h after dilution into drug-free medium ([1]; E. coli in LPM (pH 5.5), concentration 10): 0.531; Regrowth, OD600 at 6h or 8h after dilution into drug-free medium ([1]; E. coli in LPM (pH 5.5), concentration 30): 0.471; EC50 ([1]; pH 7.4): 0.677 µM; log10(CFU/ml) after treatment [2, 19]: 6.114 log10(CFU/ml) and 5.230 log10(CFU/ml) and 5.000 log10(CFU/ml); killing, average Δlog10(CFU/ml) [3, 18]: 3.988 log10(CFU/ml); log10(CFU/ml) after treatment ([3]; concentration 10): =<4 log10(CFU/ml) (2×) and 4.301 log10(CFU/ml); killing, average Δlog10(CFU/ml) ([3]; concentration 10, vs CFU before treatment): 4.787 log10(CFU/ml); reduction of bacterial counts, non-growing P. aeruginosa ([3]; at 2.5 µM, 1:4 CA-MHB pH 7.4, 24 h treatment): more than four; MIC [4]: 0.25 µM (≈ 0.0985 µg/mL); log10(CFU/ml) after treatment ([5]; concentration 0.1): 9.061 log10(CFU/ml) and 9.079 log10(CFU/ml) and 8.740 log10(CFU/ml); log10(CFU/ml) after treatment ([5]; concentration 0.5): 8.398 log10(CFU/ml) and 8.431 log10(CFU/ml) and 8.104 log10(CFU/ml); log10(CFU/ml) after treatment ([5]; concentration 2.5): 7.196 log10(CFU/ml) and 7.716 log10(CFU/ml) and 6.826 log10(CFU/ml); log10(CFU/ml) after treatment ([5]; concentration 10): 7.033 log10(CFU/ml) and 7.000 log10(CFU/ml) and 6.100 log10(CFU/ml) |
